# Reference: patent publication US8288410B2, “3-substituted quinolinium and 7H-indolo[2,3-c]quinolinium salts as new antiinfectives” (Florida Agricultural and Mechanical University, priority 2008, dated 2012)
# Read-outs that look alike come from different tables or passages of the source.
# Tests used:
# MRSA = test: Antibacterial susceptibility testing, MRSA; format: cell-based, methicillin resistant Staphylococcus aureus; settings: for MRSA IC50 / MRSA MFC / MRSA MIC: Table 3; for MRS IC50 / MRS MFC / MRS MIC: Table 1
# Description: (§1) Using standard susceptibility tests, the compounds of the invention were determined to be active against MRSA, C. neoformans and several other bacteria, fungi and protozoa. More specifically, the antibacterial and antifungal testing was carried out in the following manner. Cryptococcus neoformans ATCC 90113 and MRSA were obtained from the American Type Culture Collection (Manassas. Va.). Several others including Candida albicans ATTC 90028, Aspergillus fumigatus ATCC 90906 and Mycobacterium intracellulare (M. intracellulare) ATCC 23086 were also procured. Susceptibility testing was performed using a modified version of the National Committee for Clinical Laboratory Standards method. M. intracellulare was tested using a modified method of Franzblau, et al., J. Clin. Microbiol., 1998, 36, 362-366. DMSO solutions of samples were serially diluted in saline, and transferred in duplicate to 96 well microplates. Microbial suspensions were diluted in the broth to afford desired colony forming units/mL according to the 0.5 McFarland Standard [C. Albicans: either Saboraud Dextrose broth (SDB) or RPMI 1640, C. neoformans: SDB, A fumigatus: either YM broth (for MICS) or RPMI-1640+5% Alamar Blue.] After adding microbial cultures to the sampled afforded a final volume of 200 μL and final test concentration starting with 20 μg/mL, plates were read prior to and after final incubation using either fluorescence at 544ex/590em (M intracellulare, A. fumigatus) using the Polarstar galaxy reader (Biotek Instruments, Vermont). Growth (saline only), solvent and blank (media only) controls were included on each test plate. Drug controls [Ciprofloxacin (ICN Biomedicals, Ohio) for bacteria and Amphotericin B (ICN Biomedicals, Ohio) for fungi] were included in each assay. Percent growth was calculated and plotted versus test concentration to afford IC50 (sample concentration that affords 50% inhibition or growth of the organism). The minimum inhibitory concentration (MIC) was determined by visually inspecting the plate, and is defined as the lowest test concentration that allows no detectable growth (for Almar Blue assays, no color change from blue to pink).
# [1] = test system: Candida albicans ATTC 90028; test: Antifungal susceptibility testing, Candida albicans; format: cell-based
# Description: as §1
# [2] = test system: Aspergillus fumigatus ATCC 90906; test: Antifungal susceptibility testing, Aspergillus fumigatus; format: cell-based
# Description: as §1
# [3] = test system: Cryptococcus neoformans ATCC 90113; test: Antifungal susceptibility testing, Cryptococcus neoformans; format: cell-based
# Description: as §1
# Vero Cells = test: Cytotoxicity, Vero cells; format: cell-based
SMILES,TC50 Vero Cells (Vero Cells; Table 3),Ca IC50 ([1]; Table 1),Ca MFC ([1]; Table 1),Ca MIC ([1]; Table 1),"A fu IC50 ([2]; Table 1, Aspergillus fumigatus)","A fu MFC ([2]; Table 1, Aspergillus fumigatus)","A fu MIC ([2]; Table 1, Aspergillus fumigatus)",Cn IC50 ([3]; Table 1),Cn MFC ([3]; Table 1),Cn MIC ([3]; Table 1),MRS IC50 (MRSA),MRS MFC (MRSA),MRS MIC (MRSA),also measured
FC(F)(F)c1ccc2[nH]c3c[n+](CCCCCC4CCCCC4)c4ccccc4c3c2c1.[I-] [JRE-3-4-1],10.5 µg/mL,–,–,–,–,–,–,–,–,–,–,–,–,"MRSA IC50 (MRSA): 1.0 µg/mL; MRSA MFC (MRSA): 3.1 µg/mL; MRSA MIC (MRSA): 1.6 µg/mL; Ca IC50 ([1]; Table 3): 2.0 µg/mL; Ca MFC ([1]; Table 3): 13 µg/mL; Ca MIC ([1]; Table 3): 6.3 µg/mL; A fu IC50 ([2]; Table 3, Aspergillus fumigatus): 10 µg/mL; Cn IC50 ([3]; Table 3): 9.0 µg/mL; Cn MFC ([3]; Table 3): — ((-) = >20 μg/mL); Cn MIC ([3]; Table 3): — ((-) = >20 μg/mL)"
Clc1ccc2c(c1)[nH]c1c[n+](CCCCCC3CCCCC3)c3ccccc3c12.[I-] [JRE-3-10-1],9.3 µg/mL,–,–,–,–,–,–,–,–,–,–,–,–,"MRSA IC50 (MRSA): 5.0 µg/mL; MRSA MFC (MRSA): — ((-) = >20 μg/mL); MRSA MIC (MRSA): 25 µg/mL; Ca IC50 ([1]; Table 3): >20 µg/mL; Ca MFC ([1]; Table 3): — ((-) = >20 μg/mL); Ca MIC ([1]; Table 3): — ((-) = >20 μg/mL); A fu IC50 ([2]; Table 3, Aspergillus fumigatus): >20 µg/mL; Cn IC50 ([3]; Table 3): >20 µg/mL; Cn MFC ([3]; Table 3): — ((-) = >20 μg/mL); Cn MIC ([3]; Table 3): — ((-) = >20 μg/mL)"
"C[n+]1cc2c(c3cc(Cl)ccc3n2CCCCCC2CCCCC2)c2ccccc21.[I-] [JRE-3-13-1, 10-Chloro-7-(5-cyclohexyl-pentyl)-5-methyl-7H-indolo[2,3-c]quinolin-5-ium iodide]",>10 µg/mL,–,–,–,–,–,–,–,–,–,–,–,–,"IC50 (MRSA; Staphylococcus aureus, Table 3, read-out: MRSA IC50): 0.5 µg/mL; MFC (MRSA; Staphylococcus aureus, Table 3, read-out: MRSA MFC): 0.8 µg/mL; MIC (MRSA; Staphylococcus aureus, Table 3, read-out: MRSA MIC): 0.8 µg/mL; IC50 ([1]; ATTC90028, Table 3, read-out: Ca IC50): 0.9 µg/mL; MFC ([1]; ATTC90028, Table 3, read-out: Ca MFC): 1.6 µg/mL; MIC ([1]; ATTC90028, Table 3, read-out: Ca MIC): 1.6 µg/mL; A fu MFC [2]: 25 µg/mL; A fu MIC [2]: 6.3 µg/mL; IC50 ([2]; ATCC90906, Table 3, Aspergillus fumigatus, read-out: A fu IC50): 2 µg/mL; IC50 ([3]; ATCC90113, Table 3, read-out: Cn IC50): 0.9 µg/mL; MFC ([3]; ATCC90113, Table 3, read-out: Cn MFC): 1.6 µg/mL; MIC ([3]; ATCC90113, Table 3, read-out: Cn MIC): 1.6 µg/mL"
FC(F)(F)c1ccc(Sc2cc3ccccc3[n+](CCCCCc3ccccc3)c2)cc1.[I-] [XYZ-III-66],–,5.5 µg/mL,— ((-) = >20 μg/mL),10 µg/mL,3.0 µg/mL,— ((-) = >20 μg/mL),5.0 µg/mL,2.0 µg/mL,10 µg/mL,5.0 µg/mL,–,–,–,TC50 Vero Cells (Vero Cells; Table 1): NC (NC = Not toxic at 10 μg/mL)
[I-].[O-][S+](c1ccc(C(F)(F)F)cc1)c1cc2ccccc2[n+](CCCCCc2ccccc2)c1 (stereo not drawn) [XYZ-V-27],–,— ((-) = >20 μg/mL),— ((-) = >20 μg/mL),— ((-) = >20 μg/mL),— ((-) = >20 μg/mL),— ((-) = >20 μg/mL),— ((-) = >20 μg/mL),6.0 µg/mL,20 µg/mL,10 µg/mL,0.50 µg/mL,— ((-) = >20 μg/mL),1.3 µg/mL,–
[I-].[O-][S+](c1cccc(Br)c1)c1cc2ccccc2[n+](CCCCCc2ccccc2)c1 (stereo not drawn) [XYZ-V-29],–,— ((-) = >20 μg/mL),— ((-) = >20 μg/mL),— ((-) = >20 μg/mL),— ((-) = >20 μg/mL),— ((-) = >20 μg/mL),— ((-) = >20 μg/mL),5.5 µg/mL,20 µg/mL,10 µg/mL,0.90 µg/mL,— ((-) = >20 μg/mL),2.5 µg/mL,–
O=C(c1ccc(Cl)cc1)c1cc2ccccc2[n+](CCCCCc2ccccc2)c1.[I-] [XYZ-V-62],–,7.0 µg/mL,— ((-) = >20 μg/mL),10 µg/mL,10 µg/mL,— ((-) = >20 μg/mL),20 µg/mL,2.0 µg/mL,10 µg/mL,5.0 µg/mL,0.20 µg/mL,— ((-) = >20 μg/mL),3.1 µg/mL,–
